The results in this text go back to patent US11160770B2, “Compounds, compositions and methods for treating oxidative DNA damage disorders” (Indiana University Research and Technology Corporation, priority 2011, dated 2021).

This assay deals with redox function of APE1 (Homo sapiens, UniProt P27695). Briefly: Redox EMSA Assay. Type of assay: biochemical. To be noted: 0.02 mM DTT. As for the experimental part: EXAMPLE. Redox EMSA Assay. Conventional electrophoresis measuring Ape1 […] with 0.02 mM DTT is used to evaluate test compounds. Additional details are described in Fishel et al. Mol Cancer Ther. 2011 September; 10(9):1698-708 & Luo et al., Antioxid Redox Signal. 2008 November; 10(11):1853-67. […]
(A gel shift assay detects complexes by their altered migration in electrophoresis.)

pIC50: −log10 of the molar value.

Chain of redox function of APE1 (P27695 whole entry): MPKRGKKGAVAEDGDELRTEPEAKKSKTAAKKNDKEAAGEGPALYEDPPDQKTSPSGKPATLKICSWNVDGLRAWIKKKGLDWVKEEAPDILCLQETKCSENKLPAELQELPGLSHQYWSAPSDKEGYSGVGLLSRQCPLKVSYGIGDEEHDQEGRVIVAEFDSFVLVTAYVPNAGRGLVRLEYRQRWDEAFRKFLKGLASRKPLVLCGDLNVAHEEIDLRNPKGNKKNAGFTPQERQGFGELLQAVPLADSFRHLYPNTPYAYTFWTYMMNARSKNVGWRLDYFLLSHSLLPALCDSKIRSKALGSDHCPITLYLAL

`CCC/C(=C\C1=C(OC)C(=O)c2ccccc2C1=O)C(=O)NC` [Example 1] had a pIC50 of 5.21. The same measure for `CCC/C(=C\C1=C(OC)C(=O)c2ccccc2C1=O)C(=O)N(C)C` [Example 2]: 5.64; for `CCC/C(=C\C1=C(OC)C(=O)c2ccccc2C1=O)C(=O)NCC` [Example 3]: 5.48; for `CCC/C(=C\C1=C(OC)C(=O)c2ccccc2C1=O)C(=O)N(CC)CC` [Example 5]: > 6.00. `CCCC/C(=C\C1=C(C)C(=O)c2ccccc2C1=O)C(=O)NC` [Example 6] gave a pIC50 of 4.77. To `CCCC/C(=C\C1=C(C)C(=O)c2ccccc2C1=O)C(=O)N(C)C` [Example 7] belongs 4.64. To `CCCC/C(=C\C1=C(C)C(=O)c2ccccc2C1=O)C(=O)NCC` [Example 8] belongs 4.70. For `CCCC/C(=C\C1=C(C)C(=O)c2ccccc2C1=O)C(=O)N(CC)CC` [Example 9], the pIC50 is 3.92. For the molecule `CCCC/C(=C\C1=C(OC)C(=O)c2ccccc2C1=O)C(=O)NOC` [Example 10], the pIC50 is > 6.00. Consider `CCCC/C(=C\C1=C(C)C(=O)c2ccccc2C1=O)C(=O)NC1CC1` [Example 11], for which the pIC50 was 4.85. The same measure for `CCCC/C(=C\C1=C(C)C(=O)c2ccccc2C1=O)C(=O)NC1CCCCC1` [Example 14]: 4.01. To `CCCC/C(=C\C1=C(C)C(=O)c2ccccc2C1=O)C(=O)N1CCNC(=O)C1` [Example 15] belongs 4.64; to `CCCC/C(=C\C1=C(C)C(=O)c2ccccc2C1=O)C(=O)N(C)OC` [Example 16], 4.59. `CCCC/C(=C/C1=C(C)C(=O)c2ccccc2C1=O)C(=O)N1CCOCC1` [Example 17] had a pIC50 of 4.60. This pIC50 and that of the molecule before are within 0.2 log units of each other. To `CCCC/C(=C\C1=C(C)C(=O)c2ccccc2C1=O)C(=O)N1CCOCC1` [Example 18] belongs 4.47; to `CCCC/C(=C\C1=C(C)C(=O)c2ccccc2C1=O)C(=O)NCCOC` [Example 20], 4.03.

`CCCC/C(=C/C1=C(C)C(=O)c2ccccc2C1=O)C(=O)NCCOC` [Example 21]: the pIC50 was 4.40. Consider `CCC/C(=C\C1=C(Cl)C(=O)c2ccccc2C1=O)C(=O)NOC` [Example 22], for which the pIC50 was > 5.60. To `CCC/C(=C\C1=C(Cl)C(=O)c2ccccc2C1=O)C(=O)N(CC)CC` [Example 23] belongs 5.60. To `CCC/C(=C\C1=C(O)C(=O)c2ccccc2C1=O)C(=O)O` [Example 24] belongs < 5.00; to `CCCC(=CC1=C(OC)C(=O)c2ccccc2C1=O)C(=O)N(CC)CC` [Example 25], 4.89; to `CCCC(=CC1=C(OC)C(=O)c2ccccc2C1=O)C(=O)N(C)C` [Example 26], 5.59. In turn, `CCCCCCCCC/C(=C\C1=C(C)C(=O)C(OC)=C(OC)C1=O)C(=O)NOC` [Example 29] had a pIC50 of 4.77. Compared with the last molecule, the pIC50 is 0.82 log units lower. To `CCCCCCCCC/C(=C\C1=C(C)C(=O)C(OC)=C(OC)C1=O)C(=O)N(C)CC(O)C(O)C(O)C(O)CO` (stereo not drawn) [Example 30] belongs 4.82.

In turn, `CCCC/C(=C\C1=C(C)C(=O)C(OC)=C(OC)C1=O)C(=O)N(C)OC` [Example 31] showed a pIC50 of 4.62. To `CCCC/C(=C\C1=C(C)C(=O)c2ccccc2C1=O)C(=O)O` [Example 32] belongs 4.28 to 4.33; to `CCCC/C(=C\C1=C(OC)C(=O)c2ccccc2C1=O)C(=O)O` [Example 33], 6.30.

As a reminder, the pIC50 is the negative decadic logarithm of the IC50, by convention in mol/L. Low values mean a high IC50, high ones a low IC50.
